{
  "source": "paper PMC9103351",
  "about": "“Effects of the Bark Resin Extract of Garcinia nigrolineata on Chronic Stress-Induced Memory Deficit in Mice Model and the In Vitro Monoamine Oxidases and β-Amyloid Aggregation Inhibitory Activities of Its Prenylated Xanthone Constituents” (Molecules, 2022)",
  "key": {"UCMS mice [1]": {"test_system": "UCMS mice", "assay": "Y-maze test in UCMS mice", "type": "in vivo, ICR mice", "settings": "100 mg/kg/day p.o., vs vehicle-treated UCMS group", "method": "(§1) Five-week-old male ICR mice (weight: 20–30 g), which were acquired from Nomura Siam International (Pathumwan, Bangkok, Thailand), were maintained at the Animal Unit of the Faculty of Pharmaceutical Sciences, Khon Kaen University. Mice were cared for in accordance with the Guiding Principles for the Care and Use of Animals (NIH Publications No. 80–23, revised in 2011). The facilities sustained a 12 h light/dark cycle, constant temperature (22 ± 2 °C), and humidity (45 ± 2%), with full access to food and drink. The current research was authorized by the Animal Ethics Committee for Use and Care of Khon Kaen University (IACUC-KKU-121/64)\n(§2) Mice in the stress groups received mild stressors for 6 weeks. […]\nY-maze test was used to evaluate spontaneous alternation related to a sudden recall, a performance that was previously described by Kraeuter et al. with some modification. […] Mice were allowed to explore the maze for 4 min, during which their number and sequence of arms visits and spontaneous alternations were recorded. […] The measure of the animal recalling a memory is the percentage alternation, which was calculated by the following equation:% Alternation = [(Number of alternations)/(Total arm entries − 2)] × 100"}, "UCMS mice [2]": {"test_system": "UCMS mice", "assay": "Novel Object Recognition Test (NORT) in UCMS mice", "type": "in vivo, ICR mice", "settings": "100 mg/kg/day p.o.", "method": "as §1, §2\nThe NORT is used to investigate the spatial recognition memory associated with the ability to discriminate between two sets of objects that differ in texture, color, and shape. […] The mouse was free to explore the objects for 5 min and the total time spent exploring each object and the percentage discrimination index were recorded. […] The exploration ratio was calculated according to the following equation:% Discrimination index = [(TN − TF)/(TN + TF)] × 100 where, TN = time devoted to the novel object, TF = time devoted to the familiar object."}},
  "data": [
    {"substance": "vitamin E", "values": [
      {"measurement": "percentage of spontaneous alternation (Y-maze)", "setting": "UCMS mice [1]", "value": "significantly increased"},
      {"measurement": "discrimination index performance (NORT test phase)", "setting": "UCMS mice [2]", "value": "significantly ameliorated"}
    ]}
  ]
}
